Values joined by “and” are separate entries in the source; they are usually repeats but may differ in a detail not shown here. Equal entries are not always repeated.
How the values were obtained:
[1] = Photostability in solution in a chemical solvent (Suntest CPS+); format: physicochemical; settings: 25 μg deposited from methanol, absorbance vs non-irradiated control, in % (unit assumed); for Photostability at 5 MED, mean: Suntest irradiation 5 MED; for Photostability at 10 MED, mean: Suntest irradiation 10 MED
Excerpt: A Suntest CPS+(Atlas, Linsengenicht/Altenhasslan, Germany) was used. The Suntest makes it possible to reproduce the solar spectrum and thus to carry out exposures inside at any time without weather constraints.
The radiance of the solar simulator was carefully measured with a spectroradiometer (MSS 2044, Bielefeld, Germany). UVB and UVA intensities were 0.49 mW/cm^2 and 6.32 mW/cm^2, respectively. The MED value defined by COLIPA is 5.6 J/cm^2 in total UV (22). The UV total (UVA+UVB) accounts for 14.8% of the energy delivered by the lamp (power 460 W/m^2). An irradiation dose equivalent to 1 MED corresponds to 37.83 J/cm^2 (in total spectrum) delivered by the lamp.
The Suntest test duration is calculated using the following formula: t=H/E with: • E=illumination energy in W/m^2 • H=irradiation dose in J/m^2 • t=duration of the test in s
The solutions of the compounds are prepared at a concentration of 500 μg/ml in methanol. 50 μl (25 μg) of each solution are deposited in a crystallizer, then irradiated in the Suntest at 5, 10 and/or 20 MED. A non-irradiated control is prepared (deposit of 50 μl of solution and addition of 2.450 ml of methanol). The solvent evaporates during irradiation and the products are taken up in 2.5 ml of methanol. After irradiation, the absorbance of each solution is measured with the UV-visible spectrophotometer (Varian CARY 50 Scan).

[2] = Solubility study in solvents or excipients used in cosmetics; format: physicochemical; settings: for Solubilities: Soluble (solvent in which the compound is soluble): value = solvent; for Solubilities: Insoluble (solvent in which the compound is insoluble): value = solvent named in the Insoluble column
[3] = In vitro SPF measurement in a chemical solvent (Diffey and Robson); settings: ethyl acetate, 10 μg/ml, transmittance 290-400 nm
Method: The in vitro methods of determining the protective effectiveness of sun products consist of measuring by transmission spectrophotometry the absorption spectrum of the filter in solution or of the product applied on a substrate with the aim of simulating the surface of the skin. The effectiveness against UVB and/or UVA rays, or the effect on the cutaneous response, are then determined by calculation, taking into account or not the UV radiation action spectrum for the damage considered.
The Sayre/Agin and Diffey/Robson method, used since the 1990s, involves a comparative measurement, with the aid of an integrating-sphere spectroradiometer, of the transition from 290 nm to 400 nm in 5 nm steps, the sample being subjected to UV radiation from a stable known source covering the whole of the UV spectrum (unfiltered xenon).
Diffey and Robson evaluate the erythemal response by the following calculation:
[formula] E(λ)=spectral irradiation in W(m-^2) (nm^−1) at 40° N sun at 20° zenith angle • ε=erythematous capacity
[formula] N(λ)=number of values for a given wavelength
The Diffey and Robson formula makes it possible to determine SPF from the measurement of transmittance between 290 nm and 400 nm. Transmittance is measured in solution in ethyl acetate at a concentration of 10 μg/ml using a UV-visible spectrophotometer (Varian CARY 50 Scan).
[formula] T(λ)=transmittance at wavelength λ

[4] = Spectral distribution in UVA and UVB, 290 nm to 400 nm; format: physicochemical; settings: for Absorption peaks: range from 290 nm to 400 nm; for Spectral distribution (UV bands absorbed): absorption spectra, FIGS. 1-3
Excerpt: The products tested are classified according to spectral distribution in UVA and UVB in a range from 290 nm to 400 nm. It is possible to differentiate them according to their spectral distribution: Products with a narrow spectrum: • Products absorbing in the range between 280 nm and 320 nm (UVB) • Products absorbing in the range between 320 nm and 400 nm (UVA) Products with a broad spectrum: • Products absorbing in UVB (280-320 nm) and UVA-II […] • Products covering UVB and UVA (280-400 nm).

[5] = Spectral characteristics: molar extinction coefficient and specific absorbance (UV spectrophotometry in ethyl acetate); format: physicochemical; settings: 10 μg/ml; for Maximum molar extinction coefficient UVA / Maximum specific absorbance UVA: UVA band; for Maximum molar extinction coefficient UVB / Maximum specific absorbance UVB: UVB band
Excerpt: The calculation of the molar extinction coefficient (ε) is made from the Beer-Lambert law:
[formula] Wherein: • A=absorbance • I0=intensity of the incident light • I=intensity of the transmitted light • ε=molar extinction (or molar absorbance) coefficient in M^−1 cm^−1 • l=path length in cm • c=concentration in mol/l
The molar extinction coefficient can be expressed with respect to a given mass of the product. It thus makes it possible to be able to compare the coefficients of extinction between products for the same given quantity. This quantity is 1% by weight. The molar extinction coefficient thus becomes the specific absorbance (A1cm^1%).
It is expressed as follows:
[formula] Wherein: • A1cm^1%=specific absorbance • ε=molar extinction coefficient • M=molar mass
The spectral characteristics of the compounds in comparison with commercial filters at a concentration of 10 μg/ml are summarized in tables 2-1 and 2-2.
Procedure: The products are dissolved in ethyl acetate to a concentration of 10 μg/ml. The spectra are measured using a dual-beam spectrophotometer (Varian CARY 50 Scan) between 290 nm and 400 nm.

[6] = excipient Finsol V NT ® (C12-C15 alkyl benzoate)
[7] = excipient PEG400 ® (polyethylene glycol)

Compound	Photostability at 5 MED, mean [1]	Photostability at 10 MED, mean [1]	Solubility (%) [2, 6] [%]	Solubility (%) [2, 7] [%]	Solubilities: Soluble (solvent in which the compound is soluble) [2]	Solubilities: Insoluble (solvent in which the compound is insoluble) [2]	SPF [3]	Absorption peaks [4] [nm]	Maximum molar extinction coefficient UVA [5] [M⁻¹ cm⁻¹]	Maximum specific absorbance UVA ([5]; A1cm^1%)	Wavelength of maximum molar extinction coefficient UVA ([5]; the 'at ...' part of the cell)	Wavelength of maximum specific absorbance UVA ([5]; the 'at ...' part of the cell)	Maximum molar extinction coefficient UVB [5] [M⁻¹ cm⁻¹]	Maximum specific absorbance UVB ([5]; A1cm^1%)	Wavelength of maximum molar extinction coefficient UVB ([5]; the 'at ...' part of the cell)	Wavelength of maximum specific absorbance UVB ([5]; the 'at ...' part of the cell)	Spectral distribution (UV bands absorbed) [4]	also measured
1,4-bis[5,6-(4,4′-dihexyl)-diphenyl-1,2,4-triazin-3-yl]benzene [WP96]	83.30	74.35	1	2	DMC and CHCl3 and Et2O and Toluene and Octanol and Methanol	EtOH and Myritol and Acetic acid	68.02											Solubility (%) ([2]; excipient Myritol 318 ® (caprylic/capric triglycerides)): 0.1%; Solubilities: Soluble, Transcutol ([2]; solvent Transcutol): Transcutol 0.5%
COc1ccc(C(=O)CC(=O)c2ccc(C(C)(C)C)cc2)cc1 [Parsol 1789 ®, reference compound]							51.1	360	34100	1100	at 360 nm	at 360 nm						Maximum molar extinction coefficient UVC ([5]; UVC band): 8633 at M^−1 cm^−1; Maximum specific absorbance UVC ([5]; A1cm^1%, UVC band): 278 at; Wavelength of maximum molar extinction coefficient UVC ([5]; the 'at ...' part of the cell): 275 nm; Wavelength of maximum specific absorbance UVC ([5]; the 'at ...' part of the cell): 275 nm
CCCCC(CC)COC(=O)C=Cc1ccc(OC)cc1 (stereo not shown) [Parsol MCX ®, reference compound]							20.78	310					24600	848	at 310 nm	at 310 nm		
CC(C)(C)CC(C)(C)c1cc(Cc2cc(C(C)(C)CC(C)(C)C)cc(-n3nc4ccccc4n3)c2O)c(O)c(-n2nc3ccccc3n2)c1 [Tinosorb M ®, reference compound]							54.07		36400	552	at 345 nm	at 345 nm	36600	556	at 305 nm	at 305 nm		
CCCCC(CC)COc1ccc(-c2nc(-c3ccc(OC)cc3)nc(-c3ccc(OCC(CC)CCCC)cc3O)n2)c(O)c1 (stereo not shown) [Tinosorb S ®, reference compound]							76.19		49580	789	at 345 nm	at 345 nm	41750	751	at 310 nm	at 310 nm		
c1ccc(-c2nnc(-c3cccc(-c4nnc(-c5ccccc5)c(-c5ccccc5)n4)c3)nc2-c2ccccc2)cc1 [WP76, 1,3-bis(5,6-diphenyl-1,2,4-triazin-3-yl)benzene]	69.23	62.53			DMSO or hot DMF	Water and MeOH and CHCl3 and Acetone and Acetonitrile and Benzene		290					54000	998	at 290 nm	at 290 nm	absorbs in UVB	
CC(C)(C)c1ccc(-c2nnc(-c3ccc(-c4nnc(-c5ccc(C(C)(C)C)cc5)c(-c5ccc(C(C)(C)C)cc5)n4)cc3)nc2-c2ccc(C(C)(C)C)cc2)cc1 [WP104, 1,4-bis[5,6-(4,4′-4-di-tert-butyl)-diphenyl-1,2,4-triazin-3-yl]benzene]	93.70	88.55			DCM and CHCl3 and Toluene and DMSO and Ethyl acetate	EtOH and MeOH and 1-Octanol and Acetic acid and Myritol and Transcutol	79.35	300					90000	1176	at 300 nm	at 300 nm	absorb in UVB and UVA	
CCCCCCCCCCCCc1ccc(-c2nnc(-c3ccc(-c4nnc(-c5ccc(CCCCCCCCCCCC)cc5)c(-c5ccc(CCCCCCCCCCCC)cc5)n4)cc3)nc2-c2ccc(CCCCCCCCCCCC)cc2)cc1 [WP107, 1,4-bis[5,6-bis(4-dodecylphenyl)-1,2,4-triazine-3-yl]benzene]	89.27	84.75	1	1	DCM and CHCl3 and Toluene and Octanol and Ethyl acetate and DMSO	EtOH and Acetic acid and MeOH and Myritol and Transcutol		300	95000	783	at 335 nm	at 335 nm	92000	757	at 300 nm	at 300 nm	absorb in UVB and UVA	Solubility (%) ([2]; excipient Arlasolve DMI ® (dimethyl isosorbide)): 1%
CC(C)CCC(C)(C)c1ccc(-c2nnc(-c3ccc(-c4nnc(-c5ccc(C(C)(C)CCC(C)C)cc5)c(-c5ccc(C(C)(C)CCC(C)C)cc5)n4)cc3)nc2-c2ccc(C(C)(C)CCC(C)C)cc2)cc1 [WP151]	76.16	70.15	5	0.5			67.2	340	60500	611	at 340 nm	at 340 nm					absorb in UVB and UVA	Solubility (%) ([2]; excipient Isopropyl adipate): 1%; Solubility (%) ([2]; excipient Myritol 331 ® (cocoglycerides)): 2%

Source: patent US7816520B2, “5,6-diphenyl-1,2,4-triazinic dimeric derivatives and the use thereof in the form of sun-protective agents” (Pierre Fabre Dermo-Cosmetique, priority 2004, dated 2010)
